Here are results for one molecule from publication PMC8708424, “Pharmacologically Targeting the Fibroblast Growth Factor 14 Interaction Site on the Voltage-Gated Na^+ Channel 1.6 Enables Isoform-Selective Modulation” (International Journal of Molecular Sciences, 2021).

Where a SMILES comes first, the peptide text is derived from it. The star is where a group is joined. Fmoc = O=C(OCC1c2ccccc2-c2ccccc21)*; tBu = CC(C)(C)*

The target of the assay is T1, voltage-gated Na+ channel 1.6 (Nav1.6) (Homo sapiens, UniProt Q9UQD0).
T1 construct: gene SCN8A; hNav1.6 channel stably expressed in HEK293 cells
Briefly: whole-cell voltage-clamp electrophysiology in HEK-Nav1.[…] cells, peak transient INa dose-response. It counts as cell-based.

T1 sequence (Q9UQD0 whole entry): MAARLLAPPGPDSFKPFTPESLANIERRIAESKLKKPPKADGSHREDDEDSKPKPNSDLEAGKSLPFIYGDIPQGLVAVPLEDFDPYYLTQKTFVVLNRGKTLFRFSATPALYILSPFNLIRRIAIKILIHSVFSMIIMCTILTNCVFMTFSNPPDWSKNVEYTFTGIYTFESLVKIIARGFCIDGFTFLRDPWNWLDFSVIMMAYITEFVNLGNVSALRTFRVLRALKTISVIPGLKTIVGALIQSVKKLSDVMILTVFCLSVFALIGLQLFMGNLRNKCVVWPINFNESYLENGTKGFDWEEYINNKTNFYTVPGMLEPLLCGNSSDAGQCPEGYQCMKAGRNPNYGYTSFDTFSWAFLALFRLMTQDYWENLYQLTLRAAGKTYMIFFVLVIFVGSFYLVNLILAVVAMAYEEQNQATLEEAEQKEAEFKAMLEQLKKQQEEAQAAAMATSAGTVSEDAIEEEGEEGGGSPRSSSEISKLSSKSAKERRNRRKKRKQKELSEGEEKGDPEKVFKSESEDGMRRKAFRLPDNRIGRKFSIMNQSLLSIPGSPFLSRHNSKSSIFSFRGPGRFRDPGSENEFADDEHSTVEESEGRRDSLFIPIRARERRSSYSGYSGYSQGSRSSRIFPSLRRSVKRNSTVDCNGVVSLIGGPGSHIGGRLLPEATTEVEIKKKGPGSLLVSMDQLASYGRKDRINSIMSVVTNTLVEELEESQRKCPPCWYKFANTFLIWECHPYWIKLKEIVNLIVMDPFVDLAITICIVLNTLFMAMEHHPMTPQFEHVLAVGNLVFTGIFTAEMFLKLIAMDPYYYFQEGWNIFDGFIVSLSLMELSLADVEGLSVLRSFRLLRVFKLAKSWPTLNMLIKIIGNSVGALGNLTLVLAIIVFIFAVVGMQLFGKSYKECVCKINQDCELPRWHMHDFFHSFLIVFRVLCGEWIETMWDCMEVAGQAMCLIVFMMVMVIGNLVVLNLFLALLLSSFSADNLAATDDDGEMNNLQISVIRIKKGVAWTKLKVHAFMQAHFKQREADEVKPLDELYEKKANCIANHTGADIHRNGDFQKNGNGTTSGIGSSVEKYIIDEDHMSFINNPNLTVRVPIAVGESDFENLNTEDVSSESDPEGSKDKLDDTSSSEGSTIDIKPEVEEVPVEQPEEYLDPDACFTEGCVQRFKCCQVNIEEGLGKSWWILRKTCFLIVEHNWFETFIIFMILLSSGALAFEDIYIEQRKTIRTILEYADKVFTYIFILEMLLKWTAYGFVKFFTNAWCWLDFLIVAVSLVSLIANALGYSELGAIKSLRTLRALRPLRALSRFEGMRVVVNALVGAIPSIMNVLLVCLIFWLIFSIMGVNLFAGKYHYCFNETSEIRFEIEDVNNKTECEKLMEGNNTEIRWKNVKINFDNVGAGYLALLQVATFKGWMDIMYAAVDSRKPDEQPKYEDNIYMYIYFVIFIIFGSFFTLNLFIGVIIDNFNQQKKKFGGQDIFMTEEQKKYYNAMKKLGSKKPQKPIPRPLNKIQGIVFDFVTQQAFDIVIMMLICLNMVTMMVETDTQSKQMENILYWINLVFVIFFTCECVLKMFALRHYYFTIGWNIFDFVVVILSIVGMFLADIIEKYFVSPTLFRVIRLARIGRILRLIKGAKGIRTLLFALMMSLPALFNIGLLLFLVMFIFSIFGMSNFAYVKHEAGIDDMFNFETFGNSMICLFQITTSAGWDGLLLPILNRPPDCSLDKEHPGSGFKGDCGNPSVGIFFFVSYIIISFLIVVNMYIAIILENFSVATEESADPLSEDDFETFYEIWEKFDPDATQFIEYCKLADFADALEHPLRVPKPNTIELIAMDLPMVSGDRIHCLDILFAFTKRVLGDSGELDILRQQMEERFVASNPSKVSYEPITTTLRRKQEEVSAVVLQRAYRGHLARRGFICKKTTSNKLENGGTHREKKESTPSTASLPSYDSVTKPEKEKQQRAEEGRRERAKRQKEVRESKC

For orientation: IC50 means the midpoint of a concentration-inhibition curve. Read a low IC50 as greater potency. Turning to `CC(C)[C@H](NC(=O)[C@H](Cc1ccc(OC(C)(C)C)cc1)NC(=O)[C@H](Cc1ccc(OC(C)(C)C)cc1)NC(=O)OCC1c2ccccc2-c2ccccc21)C(N)=O` [PW201] (Fmoc-Tyr(tBu)-Tyr(tBu)-Val-NH2), the IC50 stood at 15.1 µM.
